Experiments:
[1] = n-octanol/PBS partition coefficient, shake flask; format: physicochemical; details: UV/vis
Protocol: First, the n-octanol/PBS partition coefficient values, log Poct/PBS, of the metal PSs were experimentally determined to quantify their lipophilicity (Figure S56). Indeed, the shake flask method was employed, and the metal content was measured in both phases by UV/vis spectroscopy. […]
an integrating sphere. For the determination of the luminescence lifetime, the fluorescence decay was measured on a FLS980 spectrofluorometer equipped with a TSCPC laser (Ir(III) complexes: λ ex = 405 nm; Ru(II) complexes: λ ex = 450 nm) and a REDPMT detector. The F980 spectrometer operating software was used to collect and process luminescence lifetime data.
Photostability of Ir(III) and Ru(II) complexes. The photostability of Ir(III) or Ru(II) complexes was monitored by 1H RMN. The 1.5 × 10−2 M solutions of the complexes in DMSO-d6:D2O (3:2) at 25 °C were irradiated with blue LED light (λ irr = 460 nm, 24 W) for different intervals of time. […]
Singlet oxygen generation. The capacity of Ir-Me and Ru-Me to generate singlet oxygen ( 1O2) was determined by an indirect method using 9,10-anthracenediyl-bis(methylene) dimalonic acid (ABDA) as a probe. The reaction between ABDA and 1O2 was monitored by UV-Vis and the gradual decrease of the maximum at 379 nm was used to quantify the ability of our complexes to generate 1O2. Aerated solutions of ABDA (8 × 10^-5 M) and the corresponding PS in H2O:DMSO (50:50) were irradiated with a blue LED strip (λ ir = 460 nm; 24 W) at room temperature for intervals of 5 minutes (0 min → 100 min) and UV-Vis spectra were recorded after every irradiation interval. Concentrations of PS were tuned to achieve similar values of absorbance at 460 nm (A460 nm ≈ 0.06). The singlet oxygen quantum yield (φ) was determined using Rose Bengal (RB) as standard reference (φ Δ = 0.75)6 and the following equation:7 […]
where kPS and kRB represent the decomposition rate constants of the photobleaching of ABDA determined by the slope calculated from the linear fit of ln(A 0/A) vs time. […]
Determination of Lipophilicity. […] The log P oct/PBS values were determined as follows: […]

PC-3 cells = experiment: Cellular internalization by ICP-MS; format: cell-based, human; details: 5 μM, 4 h
Protocol: Figure 10 Cellular internalization. PC-3 cells were incubated for 4 h with the indicated compounds at 5 μM, and the Ir (A) or Ru (B) content per 1 × 10^6 cells was quantified by ICP-MS. Bars represent the mean value of three replicates ± SD. * p < 0.05; *** p < 0.001 versus Ir-H or Ru-H.
The intracellular accumulation of the PSs is a crucial requirement to achieve a photocytotoxic effect. This is because the ROS generated by the PSs have a very limited radius of action and only operate in the cellular compartment or organelle in which they are generated.[57] […] This further emphasizes the importance of cellular uptake for their cytotoxic activity. Additionally, when using tumor-targeting ligands, such as BN3, the intracellular uptake of the metallopeptides depends on the level of expression of the target receptor on the cell surface and the internalization mechanism, which may differ from that of the free complex. Therefore, the internalization of complexes Ir-H, Ir-Me, Ru-H, and Ru-Me and of metallopeptides Ir-BN and Ru-BN in PC-3 cells was determined by quantifying the intracellular metal content by inductively coupled plasma mass spectrometry (ICP-MS) (Figure 10). After 4 h treatment with the compounds at 5 μM, the amount of Ir in cells exposed to Ir-H was 3.1 ± 0.7 ng per million cells, whereas in the case of its conjugated form Ir-BN, it increased 5.7-fold to 17.9 ± 5.6 ng per million cells. […]
PC-3 cells were seeded in 6-well plates at a density of 2 million cells/well. […] The number of cells in each sample was determined using a Novocyte flow cytometer (Agilent Technologies). The samples were centrifuged to obtain the cell pellet, and the complex content was subsequently assessed using inductively coupled plasma mass spectrometry (ICP-MS). […] The Ir or Ru content was analyzed in Agilent 7500c ICP-MS located at the Technical Research Services of the University of Girona. […] The isotopes detected were ^193Ir, ^101Ru, and ^103Rh, respectively. […] Three independent samples were analyzed for each complex.

| SMILES | log Poct/PBS [1] | amount of Ir in cells (PC-3 cells) [ng per million cells] | intracellular Ru content (PC-3 cells) [ng per million cells] |
| --- | --- | --- | --- |
| Cn1c2ccccc2c2ccnc(-c3ccc(/C=C/C(=O)O)cn3)c21.[Cl-].[Ir+3].[c-]1ccccc1-c1ccccn1.[c-]1ccccc1-c1ccccn1 [Ir-H] | 1.80 | 3.1 ± 0.7 | – |
| COC(=O)/C=C/c1ccc(-c2nccc3c4ccccc4n(C)c23)nc1.[Cl-].[Ir+3].[c-]1ccccc1-c1ccccn1.[c-]1ccccc1-c1ccccn1 [Ir-Me] | 2.03 | 266.4 ± 13.9 | – |
| Cn1c2ccccc2c2ccnc(-c3ccc(/C=C/C(=O)O)cn3)c21.[Cl-].[Cl-].[Ru+2].c1ccc(-c2ccccn2)nc1.c1ccc(-c2ccccn2)nc1 [Ru-H] | −1.10 | – | 0.329 |
